Type in all cases: cell-based
One experiment concerns A2780S. As to the kind of experiment: Antiproliferative activity in human tumor cell lines: A2780S (ovarian). To be noted: PROTOCOL 1 and PROTOCOL 2, 48 hours. On the procedure:
(§1) The assays are identified as follows:
(§2) PROTOCOL 1,2,and 3 are described in greater detail hereinbelow. In general, according to PROTOCOLS 1 and 2, the target ABAE and/or Human Tumor cells are exposed to the compounds of Formula I for 48 hours. PROTOCOL 3 exposes ABAE cells to the compounds for 4 days. A detailed description of the protocols is as follows:
(§3) The antiproliferative activity of the compounds of Formula I of the present invention is evaluated in a panel comprised of human tumor cell lines and an adult bovine aortic endothelial cell line (ABAE). The human tumor cell lines are from
(§4) Cultures are renewed after 20 passages with cells from a fresh stock of batch-frozen early passage cells. Cell lines are routinely checked for mycoplasma contamination (Genprobe). In a laminar flow hood, cells (1-5×10^4) are plated into 96-well microtiter plates in a volume of 0.1 ml/well with a bulk microtiter dispenser (Denley). […] Compounds are added using a Tomtec dispenser which simultaneously dispenses from one 96-well plate, containing the drug dilutions, to the plates containing the cells. After two days of continuous drug exposure, 50% cold trichloroacetic acid (TCA) is added to 10% final concentration to fix the cells, and after 60 minutes at 4° C., the TCA is aspirated and the plates are washed 5 times with deionized water using a microtiter plate washer. […] A 0.4% solution of the dye, sulforhodamine B, in […] is added to the plates, and the plates are washed 5 times with 1% glacial acetic acid using the automatic plate washed. The bound stain is solubilized with 0.1 ml of 10 mM Tris base. The optical densities are read from an automatic spectrophotometric plate reader (Dynatech) directly to a main frame computer (VAX 8600).
(§5) Positive controls, that include standard chemotherapeutic drugs (i.e., Adriamycin, Cisplatin, etc.), are included in every experiment.
(§6) Background optical density measurements (complete media-cells, and complete media+drug-cells) are automatically subtracted from the appropriate control and test wells. Mean values and standard errors are determined from duplicate wells. A measure is also made of the optical density at time when the drugs are added. The number of cells after treatment (P), as % of control, is calculated for every concentration of drug, as follows: [formula] wherein: T is optical density measurement for treated cells after 48 hours;
(§7) C is optical density measurement for untreated cells after 48 hours;
(§8) Co is optical density measurement for cells at the time of drug addition.
(§9) IC50 of growth inhibition is calculated from the sets of P values using the RS-1 data package (BBN Software).
(§10) The antiproliferative activity of the compounds of Formula I is evaluated in a panel comprised of human tumor cell lines and an adult bovine aortic cell line (ABAE) as listed in PROTOCOL 1. This assay is a modification of PROTOCOL 1. The modifications include:
(§11) 1) each concentration for each compound is tested in a single well;
(§12) 2) compounds are tested at 20, 4, 0.8, 0.16 microgram/ml and additionally in some experiments at 100 and 0.32 microgram/ml;
(§13) 3) samples are pipetted into a 96-well plate for each of the cell lines by a Beckman Biomek 1000 SL robot;
(§14) 4) after fixing with TCA each well is washed with 0.35 ml distilled water twice, not five times;
(§15) 5) after staining with sulforhodamine B each well is washed 3 times, not five times;
(§16) 6) the growth inhibition (I) as % of control, is calculated using the RS-1 data package (BBN Software), for every concentration of drug, as follows: [formula] wherein: T is optical density measurement for treated cells after 48 hours;
(§17) 7) IC50 of growth inhibition is determined graphically from dose response curves, as is known in the art.

A further experiment relates to A2780/DDP. As to the kind of experiment: Antiproliferative activity in human tumor cell lines: A2780/DDP (ovarian). The conditions noted are these: PROTOCOL 1 and PROTOCOL 2, 48 hours. On the procedure:
as §1, §2, §3, §4, §5, §6, §7, §8, §9, §10, §11, §12, §13, §14, §15, §16, §17

In the next experiment the test system is MIP. As to the kind of experiment: Antiproliferative activity in human tumor cell lines: MIP (colon). The conditions noted are these: PROTOCOL 1 and PROTOCOL 2, 48 hours. How it is done: (§18) The antiproliferative activity of the compounds of Formula I in an Adult Bovine Aortic Endothelial (ABAE) cell line and in Human Tumor cell lines is evaluated in three similar assays that measure growth inhibition. The assays are identified as follows:
as §2, §3
(§19) All cell lines are maintained in log phase in RPMI 1640 media, supplemented with 5% fetal calf serum, penicillin/streptomycin and 2 mM L-glutamine. Cultures are renewed after 20 passages with cells from a fresh stock of batch-frozen early passage cells. Cell lines are routinely checked for mycoplasma contamination (Genprobe). In a laminar flow hood, cells (1-5×10^4) are plated into 96-well microtiter plates in a volume of 0.1 ml/well with a bulk microtiter dispenser (Denley). […] At this concentration, dimethylsulfoxide has no effect on cell growth. Compounds are added using a Tomtec dispenser which simultaneously dispenses from one 96-well plate, containing the drug dilutions, to the plates containing the cells. After two days of continuous drug exposure, 50% cold trichloroacetic acid (TCA) is added to 10% final concentration to fix the cells, and after 60 minutes at 4° C., the TCA is aspirated and the plates are washed 5 times with deionized water using a microtiter plate washer. The number of cells on the plate are quantitated using a protein dye-binding assay (Monks et al., 1991). A 0.4% solution of the dye, sulforhodamine B, in glacial acetic acid is added to the plates, and the plates are washed 5 times with 1% glacial acetic acid using the automatic plate washed. The bound stain is solubilized with 0.1 ml of 10 mM Tris base. The optical densities are read from an automatic spectrophotometric plate reader (Dynatech) directly to a main frame computer (VAX 8600).
as §5, §6, §7, §8, §9, §10, §11, §12, §13, §14
(§20) 5) after staining with sulforhodamine B each well is washed 3 times, not five times; […]

The test system of another experiment is CACO2. As to the kind of experiment: Antiproliferative activity in human tumor cell lines: CACO2 (colon). The conditions noted are these: Homo sapiens. On the procedure:
as §18, §2, §3, §19, §5, §6, §7, §8, §9, §10, §11, §12, §13, §14, §20

For a further experiment, the system named is SW620. As to the kind of experiment: Antiproliferative activity in human tumor cell lines: SW620 (colon). How it is done:
as §18, §2, §3, §19, §5, §6, §7, §8, §9, §10, §11, §12, §13, §14, §20

Another experiment deals with Human Tumor cell lines. As to the kind of experiment: Antiproliferative activity in the panel of human tumor cell lines. The conditions noted are these: for IC50: Homo sapiens, average over the 6 tumor cell lines. How it is done: as §18, §2, §3, §19, §5, §6, §7, §8, §9, §10, §11, §12, §13, §14, §20
Setting [1] is: Caco-2, CACO2 colon tumor, PROTOCOL 1 and PROTOCOL 2, 48 hours, read-out: IC50.
Where [2] appears, read: SW-620, SW620 colon tumor, PROTOCOL 1 and PROTOCOL 2, 48 hours, read-out: IC50.

Where a name gives a salt, the structure may show the parent alone. Read-outs that look alike come from different tables or passages of the source.

One may read the IC50 as the midpoint of a concentration-inhibition curve.

Take `CN(C)CC(=O)Nc1c(Cl)cc2c(c1O)C(=O)C1=C(O)[C@]3(O)C(=O)C(C(N)=O)=C(O)[C@@H](N(C)C)C3CC1C2` (stereo partly drawn) [Example 3, [4S-(45, 12aα)]-8-Chloro-4-(dimethylamino)-9[[(dimethylamino)acetyl]amino]-1,4,4a,5,5a,6,11,12a-octahydro-3,10,12,12a-tetrahydroxy-1,11-dioxo-2-naphthacenecarboxamide disulfate]: the concentration for half-maximal inhibition (IC50) in the experiment on A2780S amounted to 1.8 µg/mL; with A2780/DDP, 2.5 µg/mL; in the experiment on MIP it was 2.2 µg/mL; with CACO2 (setting [1]), 1.65 µg/mL; in the experiment on SW620 (setting [2]) it was 2.3 µg/mL; in the experiment on Human Tumor cell lines it was 1.9 µg/mL.

As for `CCCCNCC(=O)Nc1c(Cl)cc2c(c1O)C(=O)C1=C(O)[C@]3(O)C(=O)C(C(N)=O)=C(O)[C@@H](N(C)C)C3CC1C2` (stereo partly drawn) [Example 4, [4S-(4α, 12aα)]-9-[[(Butylamino)acetyl]amino]-8-chloro-4-(dimethylamino) -1,4,4a,5,5a,6,11,12a-octahydro-3,10,12,12a-tetrahydroxy-1,11-dioxo-2-naphthacenecarboxamide dihydrochloride], the IC50 with A2780S was 2.5 µg/mL; with A2780/DDP, 2.8 µg/mL; with MIP it was 3.1 µg/mL; with CACO2 (setting [1]), 2.5 µg/mL; with SW620 (setting [2]), 2.8 µg/mL; with Human Tumor cell lines, 2.5 µg/mL.

As to `CCCNCC(=O)Nc1c(Cl)cc2c(c1O)C(=O)C1=C(O)[C@]3(O)C(=O)C(C(N)=O)=C(O)[C@@H](N(C)C)C3CC1C2` (stereo partly drawn) [Example 5, [4S-(4α, 12aα)]-8-Chloro-4-(dimethylamino)-1,4,4a,5,5a, 6,11,12a-octahydro-3,10,12,12a-tetrahydroxy-1,11-dioxo-9-[[(propylamino)acetyl]amino]-2-naphthacenecarboxamide dihydrochloride], the IC50 in the experiment on A2780S turned out to be 3 µg/mL; with A2780/DDP, 3 µg/mL; in the experiment with MIP, 10 µg/mL; in the experiment on CACO2 (Caco-2, 48 h), 4 µg/mL; with SW620 (setting [2]) it was 3.5 µg/mL; in the experiment on Human Tumor cell lines it was 4.6 µg/mL. Besides, the “inhibition of cell growth at the highest concentrations” value with Human Tumor cell lines (FIG. 2, 6 Human Tumor cell lines, highest concentrations) was “no 100% inhibition of cell growth”. In addition, the Dead floating cells result in the experiment on Human Tumor cell lines (at the highest concentration) was “not observed”.

On to `CCCCCNCC(=O)Nc1c(Cl)cc2c(c1O)C(=O)C1=C(O)[C@]3(O)C(=O)C(C(N)=O)=C(O)[C@@H](N(C)C)C3CC1C2` (stereo partly drawn) [Example 6, [4S-(4α, 12aα)]-8-Chloro-4-(dimethylamino)-1,4,4a,5,5a,6,11,12a-octahydro-3,10,12,12a-tetrahydroxy-1,11-dioxo-9-[[(pentylamino)acetyl]amino]-2-naphthacenecarboxamide dihydrochloride], for which the IC50 came out at 0.5 µg/mL in the experiment on A2780S; 0.7 µg/mL with A2780/DDP; 1.5 µg/mL with MIP; 0.7 µg/mL in the experiment on CACO2 (setting [1]); 0.8 µg/mL in the experiment with SW620 (SW-620, 48 h); 0.8 µg/mL in the experiment on Human Tumor cell lines.

As to `CNCC(=O)Nc1c(Cl)cc2c(c1O)C(=O)C1=C(O)[C@]3(O)C(=O)C(C(N)=O)=C(O)[C@@H](N(C)C)C3CC1C2` (stereo partly drawn) [Example 7, [4S-(4α, 12aα)]-8-Chloro-4-(dimethylamino)-1,4,4a,5,5a,6,11,12a-octahydro-3,10,12,12a-tetrahydroxy-1,11-dioxo-9-[[(methylamino)acetyl]amino]-2-naphthacenecarboxamide dihydrochloride], the IC50 with A2780S was determined as 4.6 µg/mL; with A2780/DDP it was 3.8 µg/mL; in the experiment on MIP, 8.5 µg/mL; with CACO2 (setting [1]), 3.8 µg/mL; in the experiment with SW620 (setting [2]), 4 µg/mL; in the experiment with Human Tumor cell lines, 4.3 µg/mL.

On to `CN(C)[C@@H]1C(O)=C(C(N)=O)C(=O)[C@@]2(O)C(O)=C3C(=O)c4c(cc(Cl)c(NC(=O)CNCC5CC5)c4O)CC3CC12` (stereo partly drawn) [Example 8, [4S-(4α,12aα)]-8-Chloro-9-[[(cyclopropylmethylamino)-acetyl]amino]4-(dimethylamino)-1,4,4a,5,5a,6,11,12a-octahydro-3,10,12,12a-tetrahydroxy-1,11-dioxo-2-naphthacenecarboxamide dihydrochloride], for which the IC50 in the experiment on A2780S is 2.2 µg/mL; in the experiment with A2780/DDP, 2.5 µg/mL; with MIP, 3.8 µg/mL; in the experiment on CACO2 (setting [1]) it was 2.8 µg/mL; with SW620 (setting [2]), 2.4 µg/mL; in the experiment on Human Tumor cell lines it was 2.45 µg/mL.

As for `CN(C)[C@@H]1C(O)=C(C(N)=O)C(=O)[C@@]2(O)C(O)=C3C(=O)c4c(cc(Cl)c(NC(=O)CN5CCCC5)c4O)CC3CC12` (stereo partly drawn) [Example 9, [7S-(7α,10aα)]-N-[9-(Aminocarbonyl)-3-chloro-7-(dimethylamino)-5,5a,6,6a,7,10,10a,12-octahydro-1,8,10a,11-tetrahydroxy-10,12-dioxo-2-naphthacenyl]-1-pyrrolidineacetamide dihydrochloride], the IC50 in the experiment on A2780S stood at 1.3 µg/mL; in the experiment with A2780/DDP, 1 µg/mL; in the experiment with MIP, 0.8 µg/mL; with CACO2 (setting [1]) it was 1.7 µg/mL; in the experiment with SW620 (SW-620, 48 h), 2 µg/mL; in the experiment with Human Tumor cell lines it was 1.45 µg/mL.

Consider `CN(C)c1c(Cl)cc(O)c2c1CC1CC3[C@H](N(C)C)C(O)=C(C(N)=O)C(=O)[C@@]3(O)C(O)=C1C2=O` (stereo partly drawn) [Example 11, [4S-(4α,12aα)]-8-Chloro-4,7-bis(dimethylamino)-1,4,4a,5,5a,6,11,12a-octahydro-3,10,12,12a-tetrahydroxy-1,11-dioxo-2-naphthacenecarboxamide sulfate], for which the IC50 in the experiment with A2780S was 1.6 µg/mL; in the experiment on A2780/DDP, 3.85 µg/mL; with MIP, 2.6 µg/mL; in the experiment on CACO2 (setting [1]), 3.6 µg/mL; with SW620 (setting [2]), 4.5 µg/mL; with Human Tumor cell lines it was 2.8 µg/mL.

Values taken from US5567693A, “Method for inhibiting angiogenesis, proliferation of endothelial or tumor cells and tumor growth” (American Cyanamid Company, priority 1994, dated 1996).
